From patent publication US20220260565A1, “METHODS OF TREATING AND DIAGNOSING INFLAMMATORY BOWEL DISEASE” (priority 2018, published 2022)

Experiments:
bacterial microbiota = test: Bacterial microbiota in stool of antifungal-treated mice (16S rDNA sequencing); type: in vivo; settings: 3 weeks in drinking water, stool DNA
Protocol: (§1) FIG. 24A-24D Antifungal treatment affects bacterial and fungal microbiota in mice. Mice were treated or not for 3 weeks with fluconazole or amphotericin B in their drinking water, DNA was isolated from stool, and fungal and bacterial communities were assessed by sequencing ITS1 and 16S rDNA regions respectively. […] D) Examples of bacteria (families) regulated upon antifungal treatment. * p<0.05; ** p<0.01; *** p<0.001; LDA scores from LEfSe analysis.
(§2) We will investigate the impact of antifungal therapy on the mucosa-associated microbiota in patients by examining samples collected before and after anti-fungal therapy. We will investigate the association between the mycobiota detected by high-throughput ITS (fungal) and 16S (bacterial) rDNA sequencing as well as targeted quantitative PCR in colonic washes, biopsies, and fecal samples. In preliminary studies in mice, we have observed that oral treatment with antifungal drugs (we have tried several) alters the fungal microbiota in fecal samples, which is, of course, not surprising (FIGS. 24A&C), but it also affects the bacterial microbiota (FIGS. 24B&D). The interrelationship between bacterial and fungal microbiota and the susceptibility of these communities to manipulation by antifungal drugs in mice is being further studied in other funded work. […]

fungal microbiota = test: Fungal microbiota in stool of antifungal-treated mice (ITS1 sequencing); type: in vivo; settings: 3 weeks in drinking water, stool DNA
Protocol: as §1, §2

[1] = system: acute colitis induced by DSS in wild type and Clec7a−/− mice; test: DSS colitis in wild type and Dectin-1-deficient (Clec7a-/-) mice treated with fluconazole; type: in vivo; settings: DSS in drinking water
From the text: DSS colitis in Dectin-1-deficient mice: The inventors examined whether defective immune recognition of fungi could have an impact on colitis and looked at the effects of inducing acute colitis in mice lacking Dectin-1 (Clec7a−/−). The inventors co-housed wild type and Clec7a−/− mice for two weeks before inducing acute colitis by administration of 3% DSS in the drinking water. […] Consistent with the histology, the inventors detected augmented production of IFN-γ and IL-17 in mesenteric lymph nodes (MLNs) and colons from Clec7a−/− mice (FIG. 12D, 12E). Furthermore, in colons of Clec7a−/− mice the inventors detected increased message for TNF-α, IL-23p19 and IL-17a, cytokines previously associated with intestinal inflammation (Not shown).

Malassezia = Malassezia levels in stool of mice after oral fluconazole (rDNA sequencing); type: in vivo; settings: oral fluconazole for 1 week
Protocol: FIG. 22 depicts Efficacy of azole drug on colonic Malassezia in mice. Mice were treated with oral fluconazole for 1 week, and Malassezia levels were measured in the stool by rDNA sequencing.

[2] = in vivo; cited from earlier work
[3] = from package insert; cited from earlier work
Malassezia spp. = settings: cited from earlier work

| SMILES | effect on bacterial microbiota (16S sequencing, LEfSe) (bacterial microbiota) | effect on fungal microbiota (ITS1 sequencing) (fungal microbiota) | effect on colitis ([1]; Dectin-1 knockout (Clec7a−/−) animals) | effect on colitis ([1]; wild type animals) | Malassezia levels in the stool (Malassezia) | concentration in feces [2] | first pass effect [2] | common adverse events in clinical trials [3] | MIC against most Malassezia spp. (Malassezia spp.) |
| --- | --- | --- | --- | --- | --- | --- | --- | --- | --- |
| C[C@@H]1[C@H](O)[C@@H](C)/C=C/C=C/C=C/C=C/C=C/C=C/C=C/[C@H](O[C@@H]2O[C@H](C)[C@@H](O)[C@H](N)[C@@H]2O)C[C@@H]2O[C@](O)(C[C@@H](O)C[C@@H](O)[C@H](O)CC[C@@H](O)C[C@@H](O)CC(=O)O[C@H]1C)C[C@H](O)[C@H]2C(=O)O [amphotericin B] | changes in bacterial microbiota | alter the fungal community |  |  |  |  |  |  |  |
| OC(Cn1cncn1)(Cn1cncn1)c1ccc(F)cc1F [fluconazole] | changes in bacterial microbiota | alter the fungal community | abrogated colitis | little or no effect | depletion of Malassezia from the stool |  |  |  |  |
| CC[C@@H]([C@H](C)O)n1ncn(-c2ccc(N3CCN(c4ccc(OC[C@@H]5CO[C@@](Cn6cncn6)(c6ccc(F)cc6F)C5)cc4)CC3)cc2)c1=O [posaconazole] |  |  |  |  |  | high | low | diarrhea, dyspepsia, nausea, fever, headache, coughing, and hypokalemia | low |
